Laboratory results reported in the NIST ThermoML archive (doi:10.1021/je100605v).

Conditions: Liquid, Closed cell (Static) method

CCO[Si](CC)(OCC)OCC [ethyltriethoxysilane]
Conditions | vapor or sublimation pressure [kPa]
335 K | 2.325
340.8 K | 3.325
346.2 K | 4.325
350.4 K | 5.325
359.9 K | 8.325
367.1 K | 11.32
372.9 K | 14.32
377.7 K | 17.32
382 K | 20.32
385.8 K | 23.32
389 K | 26.33
392 K | 29.32
394.8 K | 32.33
397.4 K | 35.33
399.9 K | 38.32
402.2 K | 41.33
404.1 K | 44.33
405.5 K | 47.32
407.6 K | 50.33
410.1 K | 53.32
411.9 K | 56.33
413.7 K | 59.33
415.4 K | 62.32
416.8 K | 65.32
418.3 K | 68.33
419.4 K | 71.33
420.6 K | 74.33
421.8 K | 77.33
423.7 K | 80.32
425.4 K | 83.33
426.7 K | 86.33
427.9 K | 89.33
429.1 K | 92.33
430.2 K | 95.32
431.3 K | 98.32
432 K | 100.33
